# Reference: paper PMC11862611 (RSC Medicinal Chemistry, 2025)
# Structures can show the parent of a compound that is named as a salt. Where two headings read alike, the source gives them in different places.
# Columns and labels:
# [1] = test system: L. major PX promastigotes; test: on-target growth inhibition, add-back cell line (PX); type: cell-based, Leishmania major
# [2] = test system: panel of neurotransmitter receptors; test: radioligand displacement assay, whole panel; type: binding, human
# Method: 4.2.3.6. Radioligand Binding Assay (Supplemental Figure S3)
# These assays were run by Eurofins under contract to LifeArc FR095-0011887. A representative protocol describing the human histamine H2 receptor (antagonist radioligand) assay is shown below.12 Cell membrane homogenates (24 µg protein) are incubated for 120 min at 22°C with 0.075 nM [125I]APT in the absence or presence of the test compound in a buffer containing 50 mM Na2HPO4/KH2PO4 (pH […]
# 7.4) and 0.05% BSA. […] Following
# [3] = test system: L. amazonensis GFP promastigotes; test: mouse model of L. amazonensis infection (ear, IL dosing); type: in vivo, BALB/c mice; details: 1.2 mg kg^−1 IL twice a week for 4 weeks
# Method: Consequently, we used IL dosing for this experiment. To enable direct comparison with CF, the same treatment regimen (dose of 1.2 mg kg^−1via IL injection twice a week for 4 weeks starting on DPI) was used for both compounds.
# A Weight variation of mice during 28 days of treatment. B Progression of lesion thickness over 28 day treatment period. C Representative photographs of the infected ear for each group taken after completion of treatment, D parasite burden was evaluated by LDA on 36 days post infection. […]
# In vivo assays were conducted as previously reported 1. Two month old BALB/c female mice, weighing 20 - 25 g and of approximately the same age were used for the study. For infection of mice, stationary phase GFP L. amazonensis promastigotes were collected, washed and suspended in sterile PBS. A volume of 10 μl of sterile PBS containing 2 x 10^6 parasites was injected into the right ear. […]
# Infected ear thicknesses were measured once or twice a week with a caliper gauge, and the lesion sizes were expressed as the difference between the thickness of infected and non-infected ear. On day 41 animals were sacrificed and the fluorescence measured (485 - 528 nm) and parasite load quantified using a limiting dilution assay (LDA).
# Data on lesion progression were analysed for statistical significance by using the Dunnett test as part of the one-way ANOVA (GraphPad Prism 8 software). […]
# L. majIPCS = target: T1, L. majIPCS (Leishmania major, UniProt E9AFX2); test: inhibition of microsomal enzyme preparation of L. majIPCS; type: biochemical; details: for inhibition at 20 µM: read-out: LmjIPCS inhibition % at 20 µM ± SD
# T1 construct: made in house
# T1 sequence (E9AFX2 1-338): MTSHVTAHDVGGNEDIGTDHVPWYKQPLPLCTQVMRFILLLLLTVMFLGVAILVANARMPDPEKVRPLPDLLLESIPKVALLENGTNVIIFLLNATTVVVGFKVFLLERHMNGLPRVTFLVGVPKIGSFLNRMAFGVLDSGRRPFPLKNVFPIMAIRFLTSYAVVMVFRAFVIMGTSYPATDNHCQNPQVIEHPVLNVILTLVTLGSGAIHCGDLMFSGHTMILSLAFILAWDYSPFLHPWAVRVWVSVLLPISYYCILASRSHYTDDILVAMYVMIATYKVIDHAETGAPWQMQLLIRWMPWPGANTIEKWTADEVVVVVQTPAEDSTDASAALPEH
# From the text: When tested against microsomal enzyme preparations of L. majIPCS[16] (Fig. 2, Table S1 ^†) the comparisons of pyrrolidine, tetrahydrofuran and cyclopentane derivatives 19, 21–23 supported earlier observations that all active compounds retained a basic nitrogen in the head group.[17] In general, whilst enzyme inhibitory activity was retained in a number of these analogues, much lower activity was observed against promastigote parasites. […] Speculating that this lower activity in promastigote parasite assays reflected a (membrane) transport issue, we then explored the corresponding ether derivative 27. Attempts to prepare this by acid catalysed ether formation failed and ultimately this was achieved through displacement of the corresponding benzylic chloride 25 (Scheme 3).
# Fig. 2 Activity of a selection of simple amide and triazole linked CF analogues against a microsomal preparation of L. majIPCS and L. major promastigote parasites, respectively.
# [4] = test system: L. major promastigotes (FV1) WT; test: anti-promastigote assay, L. major (resazurin); type: cell-based; details: Leishmania major
# Method: 4.2.3.1. Anti-promastigote assays
# L. major promastigotes (FV1) WT, PX and Δ LCB2 in Schneider’s insect medium (100 μL at 1 × 106 mL−1) were incubated in 96-well plates with compounds in triplicate (amphotericin B and cycloheximide were used as positive controls, and untreated parasites with 1% DMSO as a negative control) at 26 °C for 48 h.
# Resazurin Solution (10 μL) was then added and the plate incubated at 26 °C for 4 h prior to measurement using a fluorescence plate reader (555 - 585 nm). EC50 values were calculated using sigmoidal regression analysis (GraphPad Prism). […]
# (§1) well-1 in a 24-well plate with round cover slips and incubated for 24 h at 37 °C and 5% CO2. […]
# [5] = test system: L. amazonensis promastigotes; test: anti-promastigote assay, L. amazonensis (resazurin); type: cell-based; details: Leishmania amazonensis
# Method: 4.2.3.1. Anti-promastigote assays […]
# Protocol 1: L. amazonensis promastigotes in Medium 199 (100 μL at 5 × 105 mL−1) were incubated in 96-well plates with compounds in triplicate (amphotericin B was used as a positive control, and untreated parasites with DMSO as a negative control) at 26 °C for 72 h. Resazurin Solution (10 μL) was then added and the plate incubated at 26 °C for 4 h prior to measurement using a fluorescence plate reader (555 - 585 nm). EC50 values were calculated using sigmoidal regression analysis (GraphPad Prism).
# Protocol 2: Same procedure as above with the modification of a 48 h incubation time as opposed to 72 h and Leishmania amazonensis (MHOM/Br/75/JOSEFA) in Schneider’s insect medium in the place of Leishmania amazonensis (MHOM/Br/75/JOSEFA) in Medium 199. […]
# as §1
# [6] = promastigotes, 48 h, read-out: L. major promastigote EC50
# [7] = promastigote parasites (Table 1), read-out: L.mj EC50
# [8] = promastigote parasites (Table 1), read-out: L.amaz EC50
# [9] = 48 h, read-out: L. major promastigote EC50
# [10] = read-out: L. amaz promastigote EC50
structure (smiles),measurement,setting,value
"CN1CCC[C@@H]1CCO[C@](C)(c1ccccc1)c1ccc(Cl)cc1 [1a, clemastine fumarate, reference compound]",sensitivity in the add-back cell line (PX),[1],Sensitivity was restored
same,binding profile across receptor panel,[2],activity against a broad representation of receptor sub-types
same,lesion growth trends,[3]; 35 days post-infection,similar
same,parasitaemia (parasite burden by LDA) versus untreated group,[3]; LDA 36 days post infection,statistically significant reduction
CN1CCC[C@H]1c1cn(C(c2ccccc2)c2ccc(Cl)cc2)nn1 (stereo partly drawn) [14a],IC50,L. majIPCS,14.5 µM
same,inhibition at 20 µM,"L. majIPCS; 20 µM, microsomal preparation",60.6 ± 9.2%
same,EC50,[4]; [6],> 33 µM
CN1CCCC1c1cn(C(c2ccccc2)c2ccc(Cl)cc2)nn1 (stereo not drawn) [14b],IC50,L. majIPCS,8.49 µM
same,inhibition at 20 µM,"L. majIPCS; 20 µM, microsomal preparation",71 ± 9.7%
same,EC50,[4]; [6],> 33 µM
C[C@H]1CCCN1CCOC(c1ccccc1)c1ccc(Cl)cc1 (stereo partly drawn) [38a],EC50,[4]; read-out: L.mj EC50,2.05 µM
same,EC50,[5]; read-out: L.amaz EC50,3.4 µM
C[C@@H]1CCCN1CCOC(c1ccccc1)c1ccc(Cl)cc1 (stereo partly drawn) [38b],EC50,[4]; read-out: L.mj EC50,2.65 µM
same,EC50,[5]; read-out: L.amaz EC50,4.1 µM
COC(=O)[C@H]1CCCN1CCOC(c1ccccc1)c1ccc(Cl)cc1 (stereo partly drawn) [38c],EC50,[4]; read-out: L.mj EC50,23.8 µM
same,EC50,[5]; read-out: L.amaz EC50,17.4 µM
OC[C@H]1CCCN1CCOC(c1ccccc1)c1ccc(Cl)cc1 (stereo partly drawn) [38d],EC50,[4]; read-out: L.mj EC50,5.88 µM
same,EC50,[5]; read-out: L.amaz EC50,3.2 µM
COC[C@H]1CCCN1CCOC(c1ccccc1)c1ccc(Cl)cc1 (stereo partly drawn) [38e],EC50,[4]; read-out: L.mj EC50,14.4 µM
same,EC50,[5]; read-out: L.amaz EC50,12.3 µM
Clc1ccc(C(OCCN2CCCC2)c2ccccc2)cc1 (stereo not drawn) [38f],EC50,[5]; read-out: L.amaz EC50,3.27 µM
C[C@H]1CCCN1CCCCOC(c1ccccc1)c1ccc(Cl)cc1 (stereo partly drawn) [38g],EC50,[4]; [7],1.21 µM
C[C@H]1CCCN1CCCOC(c1ccccc1)c1ccc(Cl)cc1 (stereo partly drawn) [38h],EC50,[4]; [7],0.09 µM
C[C@H]1CCCN1CCO[C@@H](c1ccccc1)c1ccc(Cl)cc1 [38i],EC50,[4]; read-out: L.mj EC50,7.05 µM
C[C@@H]1CCCN1CCO[C@@H](c1ccccc1)c1ccc(Cl)cc1 [38j],EC50,[4]; read-out: L.mj EC50,11.5 µM
C[C@@H]1CCCN1CCO[C@H](c1ccccc1)c1ccc(Cl)cc1 [38k],EC50,[4]; read-out: L.mj EC50,1.7 µM
same,EC50,[5]; read-out: L.amaz EC50,3.2 µM
C[C@@H]1CCCN1CCCO[C@H](c1ccccc1)c1ccc(Cl)cc1 [38m],EC50,[4]; [7],0.031 µM
same,EC50,[5]; [8],0.042 µM
CC1(C)CCCN1CCCO[C@H](c1ccccc1)c1ccc(Cl)cc1 [38n],EC50,[4]; [7],0.027 µM
same,EC50,[5]; [8],0.017 µM
Clc1ccc([C@H](OCCCN2CCCC2)c2ccccc2)cc1 [38o],EC50,[4]; [7],0.08 µM
same,EC50,[5]; [8],0.1 µM
Clc1ccc(C(OCCC2CCCN2)c2ccccc2)cc1 (stereo not drawn) [compound 7],IC50,L. majIPCS,6.26 µM
same,inhibition at 20 µM,L. majIPCS,78.1 ± 12.5%
same,EC50,[4]; [9],4.1 µM
CN1CCC[C@H]1CCOC(c1ccccc1)c1ccc(Cl)cc1 (stereo partly drawn) [compound 9],IC50,L. majIPCS,4.45 µM
same,inhibition at 20 µM,L. majIPCS,81.2 ± 10.6%
same,EC50,[4]; [9],1.69 µM
CN1CCC[C@@H]1CCOC(c1ccccc1)c1ccc(Cl)cc1 (stereo partly drawn) [compound 10],IC50,L. majIPCS,4.13 µM
same,inhibition at 20 µM,L. majIPCS,78.1 ± 9.7%
same,EC50,[4]; [9],0.78 µM
O=C(NCC1CCCN1)C(c1ccccc1)c1ccc(Cl)cc1 (stereo not drawn) [compound 19],IC50,L. majIPCS,6.9 µM
same,inhibition at 20 µM,"L. majIPCS; 20 µM, microsomal preparation",81.2 ± 1.3%
same,EC50,[4]; [6],> 33 µM
O=C(CC1CCCN1)NC(c1ccccc1)c1ccc(Cl)cc1 (stereo not drawn) [compound 21],IC50,L. majIPCS,6.95 µM
same,inhibition at 20 µM,"L. majIPCS; 20 µM, microsomal preparation",82.7%
same,EC50,[4]; [6],> 33 µM
O=C(NCC1CCCO1)C(c1ccccc1)c1ccc(Cl)cc1 (stereo not drawn) [compound 22],inhibition at 20 µM,"L. majIPCS; 20 µM, microsomal preparation",2.9 ± 1.4%
O=C(CC1CCCC1)NC(c1ccccc1)c1ccc(Cl)cc1 (stereo not drawn) [compound 23],inhibition at 20 µM,"L. majIPCS; 20 µM, microsomal preparation",-5.4 ± 2.3%
CN(C)CCn1ncc2ccc(NC(=O)C(c3ccccc3)c3ccc(Cl)cc3)cc21 (stereo not drawn) [compound 24],IC50,L. majIPCS,2.41 µM
same,inhibition at 20 µM,"L. majIPCS; 20 µM, microsomal preparation",90.2 ± 2.4%
same,EC50,[4]; [6],> 10 µM
CN(C)CCn1ncc2ccc(COC(c3ccccc3)c3ccc(Cl)cc3)cc21 (stereo not drawn) [compound 27],IC50,L. majIPCS,4.72 µM
same,EC50,[4]; [6],> 5 µM
CN1CCC[C@@H]1CCOC(c1ccccc1)c1ccccc1 [compound 28],EC50,[4]; [9],8.44 µM
same,EC50,[5]; [10],1.17 µM
CN1CCC[C@@H]1CCOC(c1ccccc1)c1ccc(Br)cc1 (stereo partly drawn) [compound 29],IC50,L. majIPCS,3.21 µM
same,EC50,[4]; [9],1.36 µM
COc1ccc(C(OCC[C@H]2CCCN2C)c2ccccc2)cc1 (stereo partly drawn) [compound 30],EC50,[4]; [9],6.83 µM
same,EC50,[5]; [10],0.5 µM
COc1cccc(C(OCC[C@H]2CCCN2C)c2ccccc2)c1 (stereo partly drawn) [compound 31],EC50,[4]; [9],8.44 µM
same,EC50,[5]; [10],0.63 µM
CN1CCC[C@@H]1CCOC(c1ccccc1)c1ccc(F)cc1 (stereo partly drawn) [compound 32],EC50,[4]; [9],2.25 µM
same,EC50,[5]; [10],1.62 µM
CN1CCC[C@@H]1CCOC(c1ccc(F)cc1)c1ccc(F)cc1 [compound 33],EC50,[4]; [9],2.87 µM
same,EC50,[5]; [10],2.74 µM
CN1CCC[C@@H]1CCO[C@H](c1ccccc1)c1ccc(Cl)cc1 [compound 35],EC50,[4]; [9],0.13 µM
same,EC50,[5]; [10],0.101 µM
same,binding profile across receptor panel,[2],activity against a broad representation of receptor sub-types
CN1CCC[C@@H]1CCO[C@@H](c1ccccc1)c1ccc(Cl)cc1 [compound 37],EC50,[4]; [9],1.33 µM
same,EC50,[5]; [10],1.4 µM
